# Test results taken from patent US20240123039A1, “DETOXIFICATION PREPARATIONS WITH REINFORCED BOOSTERS TO TREAT ALCOHOL INTOXICATION” (priority 2022, published 2024).
# Legend:
# [1] = target: T1, alcohol dehydrogenase (ADH) (Saccharomyces cerevisiae, UniProt P00330); assay: Effect of NADP concentration on alcohol dehydrogenase activity, OD340 read every minute; format: biochemical; details: for OD of samples after subtracting OD at time zero vs. Time / OD of samples vs. Time: ADH 84 U/mL, 2.5% ethanol; for OD of samples vs. Time: OD340
# T1 construct: purchased Sigma
# T1 sequence (P00330 1-348): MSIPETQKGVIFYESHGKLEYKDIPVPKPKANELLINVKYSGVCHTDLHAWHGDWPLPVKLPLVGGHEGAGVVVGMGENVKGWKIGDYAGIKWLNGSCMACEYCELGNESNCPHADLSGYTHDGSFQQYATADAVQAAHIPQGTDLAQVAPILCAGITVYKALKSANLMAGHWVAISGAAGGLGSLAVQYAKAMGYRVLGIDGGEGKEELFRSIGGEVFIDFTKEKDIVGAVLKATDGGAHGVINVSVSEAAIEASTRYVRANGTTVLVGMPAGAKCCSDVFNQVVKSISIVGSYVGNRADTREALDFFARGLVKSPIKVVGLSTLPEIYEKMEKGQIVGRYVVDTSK
# Protocol: 100% ethanol (EtOH) was purchased from VWR. Buffer used was Triz Base at 0.2 M, pH 8.2.
# The concentration of ethanol is 2.5% (v/v). And 0.28 mg/mL ADH, equivalent to 84 U/mL.
# Multiple samples were prepared as per Table 1. The assay was performed as follows: • 1. […] Place a quartz cuvette into the spectrophotometer. • 3. At time minus 10 seconds, add 0.1 mL enzyme (2 mg/mL ADH or buffer blank) to the cuvette. • 4. Mix by pipetting. Read OD340 at time zero. • 5. Read OD340 every minute for 5 minutes. 6. Repeat for remaining samples.
# [2] = cited from earlier work; for safety of human consumption: by mouth up to 1000 mg per dose per day; for side effects of oral intake: orally, up to or more than 1000 mg per day over many years
compound,measurement,setting,value
Nicotinamide Adenine Dinucleotide Phosphate [NADP],OD of samples after subtracting OD at time zero vs. Time,"[1]; 0 min, NADP 8.5 mM final",0
same,OD of samples vs. Time,"[1]; 0 min, NADP 8.5 mM final",0.003
same,OD of samples after subtracting OD at time zero vs. Time,"[1]; 0 min, NADP 28 mM final",0
same,OD of samples vs. Time,"[1]; 0 min, NADP 28 mM final, listed as NADP 3x",0.749
same,OD of samples vs. Time,"[1]; 0 min, NADP 28 mM final, listed as NADP 3×",around 0.8
same,velocity of ethanol removal by ADH in the higher NADP mixture compared to the lower NADP mixture,"[1]; 28 mM vs 8.4 mM NADP, same conc of ADH",about 2 ×
same,OD of samples after subtracting OD at time zero vs. Time,"[1]; 1 min, NADP 8.5 mM final",0.059
same,OD of samples vs. Time,"[1]; 1 min, NADP 8.5 mM final",0.062
same,OD of samples vs. Time,"[1]; 1 min, NADP 28 mM final",0.860
same,OD of samples after subtracting OD at time zero vs. Time,"[1]; 2 min, NADP 8.5 mM final",0.087
same,OD of samples vs. Time,"[1]; 2 min, NADP 8.5 mM final",0.090
same,OD of samples after subtracting OD at time zero vs. Time,"[1]; 2 min, NADP 28 mM final",0.169
same,OD of samples vs. Time,"[1]; 2 min, NADP 28 mM final",0.918
same,OD of samples after subtracting OD at time zero vs. Time,"[1]; 3 min, NADP 8.5 mM final",0.098
same,OD of samples vs. Time,"[1]; 3 min, NADP 28 mM final",0.948
same,OD of samples after subtracting OD at time zero vs. Time,"[1]; 4 min, NADP 8.5 mM final",0.102
same,OD of samples vs. Time,"[1]; 4 min, NADP 28 mM final",0.963
same,OD of samples after subtracting OD at time zero vs. Time,"[1]; 5 min, NADP 28 mM final",0.223
same,OD of samples vs. Time,"[1]; 5 min, NADP 28 mM final",0.972
same,OD at higher NADP concentration compared with the lower NADP concentration,"[1]; starting at 1 minute, higher vs lower NADP concentration",higher ODs at every time point
"NC(=O)c1ccc[n+]([C@@H]2O[C@H](COP(=O)([O-])O)[C@@H](O)[C@H]2O)c1 [NMN, Nicotinamide Mononucleotide]",safety of human consumption,[2],no ill effects
same,side effects of oral intake,[2],without any detectable undesirable side effects
"NC(=O)c1ccc[n+]([C@@H]2O[C@H](CO)[C@@H](O)[C@H]2O)c1 [NR, Nicotinamide Riboside]",safety of human consumption,[2],no ill effects
same,side effects of oral intake,[2],without any detectable undesirable side effects
